Source: patent US8852590B2, “Compositions and methods for treating cancer” (Merck Sharp & Dohme Corp., priority 2009, dated 2014)
Entries after “also recorded” stand apart in the source; their conditions may differ.

Key:
A549 cell line = experiment: Soft agar colony formation assay, A549; type: cell-based, human; settings: Ridaforolimus 10 nM, MK-0646 10 ug/ml, no supplemented IGF
Protocol: (§1) The colony formation assay was performed in the absence of supplemented IGF. […] No significant correlation of KRAS-status and response to the combination was observed.
(§2) Methods: Soft agar assays were conducted in 96 well glass bottom plates (MatriCal). Cells were seeded at a concentration of 3,000-9,000 cells per well in 100 μl RMPI 1640 supplemented with 14% FBS and 0.3% (w/v) SeaPlaque Agarose (Lonza Rockland, Inc) on top of a bottom layer of consisting of the same culture media supplemented with 0.8% agarose. Compounds were added in 100 μl of culture media supplemented after agarose had solidified. Cells were incubated for 7-14 days before staining overnight with LavaCell (Active Motif). Colonies were quantified using an Isocyte™ laser scanning cytometer. […] The RTK status was evaluated in total protein lysates using the P-RTK arrays (R&D biosciences) as described by the manufacturer. The activating mutations in KRAS were identified from published cancer genome data bases (Sanger).

H2122 cell line = experiment: Soft agar colony formation assay, H2122; type: cell-based, human; settings: Ridaforolimus 10 nM, MK-0646 10 ug/ml, no supplemented IGF
Protocol: as §1, §2

[1] = system: A549 human NSCLC xenograft; experiment: A549 mutant-KRAS lung xenograft model; type: in vivo, athymic Nude-Foxn1nu mice
Protocol: Method: 2.5×10^6 A549 human NSCLC cells were injected subcutaneously into the right flank of 4-6 week old athymic Nude-Foxn1nu mice (Charles River Laboratories). When tumors reached a size of ˜300 mm3 (Length*Width*Width*0.5), mice were randomized into treatment groups. […] Animals were weighed and tumor volumes were determined by calipering 2 times per week during the study and at termination. Tumor weight was determined at termination. On day 21 Animals were sacrificed by CO2 asphyxiation. Mice were sacrificed 24 hr after the final dose. At time of sacrifice, the tissue samples were collected and processed.

[2] = system: PI3 Kinase signaling pathway in H2122 cells; experiment: Western blot of PI3K pathway signaling in H2122 cells; type: cell-based, human; settings: 4 hrs
Protocol: Methods: All the NSCLC cell lines were obtained from ATCC and maintained in RPMI 1640 with 10% fetal bovine serum (Invitrogen). […] Samples were western blotted with indicated total or phosphospecific antibodies followed by a secondary antibody (Cell Signaling Technology, CST) and then incubated with SuperSignal chemiluminescence substrate (Pierce). The blots were then exposed to a Kodak Biomax Light Film. The antibodies against ERK, p-ERK (Thr202/Tyr204), AKT and p-AKT (Ser473), IGF S6K & P-S6K (T389), IRS1 & P-IRS1 (S302) and actin were obtained from CST. Cell cycle analysis was performed in H2122 cells following 24 hr treatment with indicated compounds (see above). One million cells were permiabilized and stained with propidium Iodide (PI) as described by the manufacturer (BD Pharmingen #550825). PI binds to both DNA and RNA, so the latter was removed by digestion with ribonucleases (RNase A). The content of DNA as determined by flow cytometry, can reveal useful information about the cell cycle. Cells in G2 and M phases of the cell cycle have double the DNA content of those in G0 and G1 phases. Cells in S phase have a DNA content lying between these extremes. PI is detected in the orange range of the spectrum using a 562-588 nm band pass filter using a flow cytometer. […] Both compounds act by inhibiting oncogenic signaling through the PI3 Kinase signaling pathway. […]

AKT-P = settings: treatment of patients, O'Reilly et al 2006; cited from earlier work
H1703 = experiment: Soft agar colony formation assay, H1703; type: cell-based, human; settings: H1703, low expression of IGF1R
Protocol: as §1, §2

MCF-7 cells = experiment: IGF-I induced proliferation of MCF-7 cells (tritiated thymidine incorporation); type: cell-based; settings: antibody 10 μg/ml; IGF-I 1 to 50 ng/ml
Excerpt: The cell proliferation is estimated by following on the […] the incorporation of tritiated thymidine by the cells. The results are expressed as a proliferative index.

[3] = system: noninfected Sf9 insect cells; experiment: FACScan reactivity of MAb on noninfected Sf9 insect cells; type: binding
Protocol: For the immunization stage, mice were injected twice, by the subcutaneous route, with 8 μg of recombinant IGF-IR. Three days before the fusion of the cells of the […] with the cells of the murine myeloma Sp2OAg14, the mice were stimulated by an intravenous injection of 3 μg of the recombinant receptor. Fourteen days after the fusion, the supernatants of hybridomas were screened by ELISA, on plates sensitized by recombinant IGF-IR. The hybridomas whose supernatants were found positive were conserved and amplified before being tested on the FACS can so as to verify that the antibodies produced were likewise capable of recognizing native IGF-IR. In order to do this, MCF-7 cells from an estrogen-dependent tumor of the breast overexpressing IGF-IR were incubated with each of the culture supernatants produced by the hybridomas selected in ELISA. […] At this stage of the selection, only the hybridomas secreting MAb at the same time recognizing the recombinant receptor and the native receptor were selected and cloned. The MAb secreted by these hybridomas were produced and then purified before being tested on the FACScan, according to the method described above, on […] expressing IGF-IR or IR in order to eliminate the hybridomas at the same time recognizing the two receptors.

MCF-7 tumor = experiment: Established MCF-7 tumor model in nude mice; type: in vivo; settings: 250 μg/dose/mouse twice per week, 5 to 6 weeks
Protocol: The in vivo selection was carried out in an established tumor model. In order to do this, nude mice received a subcutaneous implant of slow-release estrogen, indispensable for the taking of the tumor in a murine model. Twenty-four hours after implantation of the estrogens, 5.10^6 MCF-7 cells are grafted onto the right flank of the mouse subcutaneously. Five days after this cell graft, the tumors are measurable and batches of 6 mice are formed at random. The treatment of the mice is carried out twice per week, during 5 to 6 weeks, at the dose of 250 μg/dose/mouse. In the control group, the mice are treated in the same fashion with a murine control isotype.

CO[C@H]1C[C@@H]2CC[C@@H](C)[C@@](O)(O2)C(=O)C(=O)N2CCCC[C@H]2C(=O)O[C@H]([C@H](C)C[C@@H]2CC[C@@H](OP(C)(C)=O)[C@H](OC)C2)CC(=O)[C@H](C)/C=C(\C)[C@@H](O)[C@@H](OC)C(=O)[C@H](C)C[C@H](C)/C=C/C=C/C=C/1C [Ridaforolimus, Dimethyl-Phosphinic Acid C-43 Rapamycin Ester]
soft agar growth inhibition (A549 cell line): only limited single agent activity
soft agar growth inhibition (H2122 cell line): only limited single agent activity
Relative tumor growth ([1]; Rida 0.1mpk, 3 weeks, end of treatment): 35.01%
phosphorylation of S6K ([2]; Ridaforolimus 10 nM): preventing

CO[C@H]1C[C@@H]2CC[C@@H](C)[C@@](O)(O2)C(=O)C(=O)N2CCCC[C@H]2C(=O)O[C@H]([C@H](C)C[C@@H]2CC[C@@H](OCCO)[C@H](OC)C2)CC(=O)[C@H](C)/C=C(\C)[C@@H](O)[C@@H](OC)C(=O)[C@H](C)C[C@H](C)/C=C/C=C/C=C/1C [RAD001]
AKT-P level in patients (AKT-P): elevated AKT-P

MK-0646: humanized antibody binding IGF-1R as well as the IR/IGF-1 hybrid receptor
soft agar growth inhibition (A549 cell line): only limited single agent activity
soft agar growth inhibition (H2122 cell line): only limited single agent activity
soft agar single agent sensitivity (H1703): resistant
AKT phosphorylation ([2]; MK-0646 10 ng/ml): preventing

7C10: murine monoclonal antibody secreted by hybridoma deposited at CNCM, IgG1, directed against IGF-IR [Example 7C10]
inhibition of proliferation of MCF-7 cells induced by IGF-I (MCF-7 cells): significantly inhibits
MFI (Mean fluorescence intensity) [3]: 8.6
inhibition of tumor growth (MCF-7 tumor): very significant inhibition

C#Cc1cccc(Nc2ncnc3cc(OCCOC)c(OCCOC)cc23)c1 [Erlotinib]
tumor growth inhibition ([1]; Erlotinib treated group compared to vehicle): No significant growth inhibition; also recorded: did not result in any appreciable tumor growth inhibition
